According to patent US20140088144A1, “INHIBITING MICROBIAL INFECTIONS” (THE UNIVERSITY OF KANSAS, priority 2012, published 2014):

Assays:
CRP = target: T1, CRP (Escherichia coli, UniProt P0ACJ8); experiment: EMSA in vitro DNA binding by CRP; assay type: biochemical, E. coli; settings: 1.3 mM compound
T1 construct: made in house; host or cells: E. coli
Description: All proteins for this study were expressed in E. coli. Untagged CRP was purified by Ni^2+-affinity chromatography as described. Lad protein was purified by ammonium sulfate precipitation and phosphocellulose column chromatography as described. RhaS-GB1^201b and GB1^b-RhaR were purified by Ni^2+-affinity chromatography. Briefly, plasmids derived from pET21 and expressing RhaS-GB1^201b and GB1^b-RhaR were transformed into competent cells of strains Acella™ (MoBiTec, Gottingen, Germany) or ArcticExpress(DE3) (Agilent Technologies, Santa Clara Calif.), respectively. The cells were grown in 1 liter TY plus ampicillin and rhamnose. Gentamycin was also added for GB1^b-RhaR. The cells were grown to OD600 of 0.5, transferred to a 15° C. shaker, 0.1 mM IPTG was added, and then incubated overnight. Cells were harvested by centrifugation and then resuspended in 30 mL of cold binding buffer (20 mM Tris, 500 mM NaCl, 5 mM imidazole, pH 7.9) plus L-rhamnose. […]
IRD700- and DY682-labeled oligos were from Eurofins MWG Operon. […] EMSA gels were imaged using an Odyssey infrared imager (LI-COR, Lincoln, Nebr.), and quantified using the Odyssey software, version 3.0.30. […] Inhibition values were calculated and graphs were drawn as for in vivo dose-response experiments.

MBP-VirF = target: T2, MBP-VirF (Shigella flexneri, UniProt P0A2T1); experiment: Fluorescence-based thermal shift assay (Sypro Orange), VirF; assay type: binding
T2 construct: made in house; host or cells: E. coli KS 1000, plasmid pMALvirF
T2 sequence (P0A2T1 whole entry): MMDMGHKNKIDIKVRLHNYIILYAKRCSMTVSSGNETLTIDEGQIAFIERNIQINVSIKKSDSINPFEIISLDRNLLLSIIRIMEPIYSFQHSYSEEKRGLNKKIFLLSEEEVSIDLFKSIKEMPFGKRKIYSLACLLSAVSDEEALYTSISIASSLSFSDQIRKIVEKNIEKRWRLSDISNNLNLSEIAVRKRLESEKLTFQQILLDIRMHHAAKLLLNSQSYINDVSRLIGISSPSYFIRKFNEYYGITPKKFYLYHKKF
Description: Binding of SE-1 to purified VirF was tested by comparing the VirF melting temperature (Tm) in the absence and presence of SE-1 using a thermal shift assay with the fluorescent dye Sypro Orange (Molecular Probes). This method is also known as differential scanning fluorimetry or DSF. As a control, we tested binding of SE-1 to the purified, unrelated, MBP-NS1-NTD protein (greater than 95% pure). […] The reactions were carried out in 0.1 ml PCR low profile 8-tube strips with optically clear flat caps (USA Scientific) in a StepOnePlus™ Real-Time PCR System (Applied Biosystems), heating from 25 to 99° C. in increments of 0.8° C. The data was analyzed using the Boltzmann sigmoidal model in the software Prism (GraphPad). Data points before and after the fluorescence intensity minimum and maximum, respectively, were excluded from fitting. The ΔTm values are the average of three independent experiments with two replicates in each experiment. A single, representative, experiment is shown.

T1 sequence (P0ACJ8 2-210): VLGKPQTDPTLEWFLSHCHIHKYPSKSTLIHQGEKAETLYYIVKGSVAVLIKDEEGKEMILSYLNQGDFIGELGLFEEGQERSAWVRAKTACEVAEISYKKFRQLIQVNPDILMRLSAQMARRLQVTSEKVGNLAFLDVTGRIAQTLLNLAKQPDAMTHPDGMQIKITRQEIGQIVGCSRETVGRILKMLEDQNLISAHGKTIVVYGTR

SMILES: CCCCN1C=C(c2ccc3ccccc3n2)C(C[N+](=O)[O-])c2ccccc21 (stereo not drawn) [Compound 1, 1-butyl-4-(nitromethyl)-3-quinolin-2-yl-4H-quinoline]
- CRP DNA binding retained (CRP): approximately 94%
- ΔTm for VirF (MBP-VirF; 40 μM SE-1): 0.15 °C
- increase of Tm of VirF (ΔTm) (MBP-VirF; 80 μM SE-1, 1 μM VirF): 0.61 °C
